# Legend:
# human M3 receptor = biological target: T1, human M3 receptor (Homo sapiens, UniProt P20309); test: Radioligand ([3H]N-methylscopolamine) binding assay, CHO cell membranes; settings: 1.5 nM tritiated N-methylscopolamine, 90 minutes at 37° C.; read-out: Binding affinity (Ki) M3
# T1 construct: expressed in transfected cells; host or cells: CHO cells
# Experimental: (§1) Binding affinity (Ki) of compounds was measured by inhibition of radioligand binding to membranes from CHO cells expressing human M1, M2, M3, M4 and M5 receptors. Membranes were prepared by nitrogen cavitation and differential centrifugation as previously described (Hoare et al., Mol. Pharmacol. 2003 March; 63(3): 751-65). The radioligand employed was tritiated N-methylscopolamine, used at a concentration of 1.5 nM. A dose-response of twelve concentrations of compound was used, ranging from […]. The assay buffer was 50 mM HEPES, 100 mM NaCl, 5 mM MgCl2, 1 mM ethylenediaminetetraacetic acid, pH-adjusted to pH 7.4. Membranes, radioligand and compound were incubated together for 90 minutes at 37° C., in a total volume of 150 μL in a 96-well plate. Receptor-bound radioligand was then collected by harvesting the assay over glass fiber filters pretreated with polyethylenimine to trap the cell membranes, using rapid vacuum filtration. Harvesting and radioactivity counting was conducted as previously described (see, e.g., Hoare et al., Mol. Pharmacol. 2003 63(3):751-65); Erratum at Mol. Pharmacol. 2005 July; 68(1): 260).
# human M5 receptor = biological target: T2, human M5 receptor (Homo sapiens, UniProt P08912); test: as above; settings: 1.5 nM tritiated N-methylscopolamine, 90 minutes at 37° C.; read-out: Binding affinity (Ki) M5
# T2 construct: expressed in transfected cells; host or cells: CHO cells
# T2 sequence (P08912 1-532): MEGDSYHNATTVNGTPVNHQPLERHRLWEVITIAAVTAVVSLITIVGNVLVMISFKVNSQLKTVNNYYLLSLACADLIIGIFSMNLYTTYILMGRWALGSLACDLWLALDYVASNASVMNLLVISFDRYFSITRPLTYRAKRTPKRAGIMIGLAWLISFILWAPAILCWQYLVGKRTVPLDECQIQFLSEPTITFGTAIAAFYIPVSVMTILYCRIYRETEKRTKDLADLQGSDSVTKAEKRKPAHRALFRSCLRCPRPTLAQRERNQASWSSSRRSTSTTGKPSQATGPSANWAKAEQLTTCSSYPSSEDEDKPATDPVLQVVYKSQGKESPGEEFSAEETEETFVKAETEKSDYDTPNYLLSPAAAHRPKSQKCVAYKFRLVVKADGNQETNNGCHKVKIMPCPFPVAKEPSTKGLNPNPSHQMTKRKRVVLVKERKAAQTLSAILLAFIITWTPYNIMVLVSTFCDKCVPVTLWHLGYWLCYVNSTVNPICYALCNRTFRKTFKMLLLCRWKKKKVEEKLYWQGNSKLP
# Experimental: as §1
# T1 sequence (P20309 whole entry): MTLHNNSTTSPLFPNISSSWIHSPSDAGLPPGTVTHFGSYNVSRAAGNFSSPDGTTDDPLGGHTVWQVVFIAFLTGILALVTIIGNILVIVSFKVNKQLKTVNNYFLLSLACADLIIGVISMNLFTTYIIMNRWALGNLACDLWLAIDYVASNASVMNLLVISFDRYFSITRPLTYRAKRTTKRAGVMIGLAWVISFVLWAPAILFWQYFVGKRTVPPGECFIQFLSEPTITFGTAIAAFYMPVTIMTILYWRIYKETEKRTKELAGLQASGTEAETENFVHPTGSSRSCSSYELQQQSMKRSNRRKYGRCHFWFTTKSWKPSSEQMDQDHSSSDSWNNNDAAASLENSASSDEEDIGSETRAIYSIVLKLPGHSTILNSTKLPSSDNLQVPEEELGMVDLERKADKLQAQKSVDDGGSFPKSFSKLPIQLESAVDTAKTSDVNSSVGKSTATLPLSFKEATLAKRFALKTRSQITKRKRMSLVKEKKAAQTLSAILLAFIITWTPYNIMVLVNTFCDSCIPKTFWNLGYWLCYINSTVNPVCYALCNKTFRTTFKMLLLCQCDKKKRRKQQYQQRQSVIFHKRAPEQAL
Ki (human M3 receptor),Ki (human M5 receptor),SMILES
≥ 1 µM,≥ 1 µM,"C[C@@H]1CN(c2cnc(C(F)(F)F)cn2)C[C@H](C)N1C(=O)OCCC1CCN(Cc2ccccc2)CC1 [Compound 1, 2-(1-benzylpiperidin-4-yl)ethyl (2R,6S)-2,6-dimethyl-4-[5-(trifluoromethyl)pyrazin-2-yl]piperazine-1-carboxylate]"
≥ 1 µM,≥ 1 µM,"C[C@@H]1CN(c2cnc(C(F)(F)F)cn2)C[C@@H](C)N1C(=O)OCCC1CCN(Cc2ccccc2)CC1 [Compound 2, 2-(1-benzylpiperidin-4-yl)ethyl (2R,6R)-2,6-dimethyl-4-[5-(trifluoromethyl)pyrazin-2-yl]piperazine-1-carboxylate]"

# Source: patent US12486250B2, “Muscarinic receptor 4 antagonists and methods of use” (Neurocrine Biosciences, Inc., priority 2019, dated 2025)
